From US20070004653A1, “Stable lyophilized anthracycline glycosides” (priority 2005, published 2007)
Where two headings read alike, the source gives them in different places. One block for each compound: values may come before it.

Key:
[1] = cited from earlier work
[2] = Stability tests of Doxorubicin HCl solutions at room temperature (aglycone); format: physicochemical
Protocol: Doxorubicin hydrochloride (500 mg) was dissolved in 0.001 N hydrochloric acid (20 ml) at room temperature. The pH of this solution was 3.25.
Doxorubicin hydrochloride (500 mg) was dissolved in 0.1 N acetic acid (20 ml) at room temperature. The pH of this solution was 2.62. After 1 hour, ammonium acetate (4% molar amount with respect to the molar amount of the doxorubicin hydrochloride) was added to the solution and the solution kept at room temperature. The pH rose from 2.62 to 3.02. The results in table 46 show the stability data of this solution at room temperature.
Doxorubicin hydrochloride (500 mg) was dissolved in 0.05 M formic acid (20 ml) at room temperature. The pH of this solution was 2.52. After 1 hour, ammonium acetate (4% molar amount in respect of the molar amount of doxorubicin hydrochloride) was added and the solution kept at room temperature. The pH rose from 2.52 to 2.71.

[3] = Stability test of stabilized lyophilized Doxorubicin HCl (IRA-67 acetate resin); format: physicochemical
Protocol: Starting product was doxorubicin hydrochloride, 2.5% w/v in water. The pH of this solution was corrected to 4.6-4.8 with IN HCl. Then 1.5% molar amount of AMBERLITE® IRA-67 (1.6 M) acetate with respect to doxorubicin hydrochloride was added. After 2 hr of slurrying, the solution was filtered through a 0.4 micron membrane then it was, frozen and lyophilized.

[4] = Purification of Doxorubicin HCl: solution at pH 3.5 warmed to 60° C., aglycone; format: physicochemical
Protocol: Doxorubicin hydrochloride (500 mg) was dissolved in water (10 ml) at room temperature. A small amount of 0.1 N hydrochloric acid was added to lower the pH from 5.4 to 3.5. […]

[5] = Preparation of stable lyophilized anthracycline glycoside hydrochlorides: aglycone and dimer in the lyophilized product; format: physicochemical
Protocol: (§1) Idarubicin hydrochloride (500 mg) was dissolved in water (50 ml) and acetic acid and ammonium acetate (both 1.5% molar amount with respect to the molar amount of idarubicin hydrochloride) were added. The solution was frozen and lyophilized.
as §1, with “Charcoal was then added (100 g) and the solution was stirred for two hours. After that, the suspension was filtered through 0.4 micron membrane and then the” for “The”
Doxorubicin hydrochloride (500 mg) was dissolved in water (20 ml) and the pH corrected to 3.5 with acetic acid at room temperature. The solution was then warmed to 60° C. for 2 hours and then ammonium acetate (1.5% molar amount with respect to the molar amount of doxorubicin hydrochloride) was added. Then the solution was quickly frozen and lyophilized.
(§2) Epirubicin hydrochloride (1550 mg) was dissolved in water (100 ml) and the pH corrected to 3.2-3.8 with hydrochloric acid at room temperature. The solution was then warmed to 60° C.-65° C. for 1 hours and then the solution was cooled to 50-60° C. At the same time, the pH was corrected to 4.5-5.0 with sodium hydroxide. Then the solution was quickly frozen and lyophilized.
Idarubicin hydrochloride (5.0 g) was dissolved in water (500 ml). Then 58 microlitres of AMBERLITE® IRA-67 (1.6M) acetate (meaning 1.0% molar amount with respect to the molar amount of idarubicin hydrochloride) and 4.5 mg of acetic acid (meaning 0.8% molar amount with respect to the molar amount of idarubicin hydrochloride) were added. The suspension was slurried for two hours, then filtered, frozen and lyophilized.
Doxorubicin hydrochloride (5.0 g) was dissolved in water (200 ml) and the pH corrected to 4.6-4.8 with IN hydrochloric acid at room temperature. Then 80 microlitres of AMBERLITE® IRA-67 (1.6M) acetate (meaning 1.5% molar amount with respect to the molar amount of doxorubicin hydrochloride) was added. The solution was then filtered, frozen and lyophilized.
as §2, with “was” for “was then”, “hour” for “hours”, “AMBERLITE® IRA-67 free base.” for “sodium hydroxide.”, “filtered, frozen,” for “frozen”

[6] = Purification of Epirubicin HCl: solution warmed to 60° C., dimer and aglycone; format: physicochemical; conditions: for dimer content / epirubicin aglycone: cooled to 50-60° C.
Protocol: Epirubicin hydrochloride (1550 mg) (containing epirubicin aglycone 0.04% and dimer 0.8%) was dissolved in water (100 ml) and the pH was corrected to 3.2-3.8 with hydrochloric acid at room temperature. The solution was then warmed in about ½ hour to 60° C.-65° C. and then maintained at tis temperature for 1 hour and then the solution was cooled to 50-60° C. At the same time, the pH was corrected to 4.5-5.0 with sodium hydroxide (at this point epirubicin aglycone was about 0,10% and dimer content<0,10%). Then the solution was quickly transferred to a cold container.
Epirubicin hydrochloride (1550 mg) (containing epirubicin aglycone 0.04% and dimer 0.8%) was dissolved in water (100 ml) and the pH corrected to 3.2-3.8 with hydrochloric acid at room temperature (by means of 30 microliters of a 1 M aqueous solution). The solution was quickly warmed (in less than ½ hour) to 60° C.-65° C. and then maintained at this temperature for 45 minutes and then the solution was cooled to 50-60° C. At the same time, the pH was corrected to 4.5-5.0 with AMBERLITE® IRA-67 free base (0,18 ml of resin 1,6M) (at this point epirubicin aglycone was about 0,09% and dimer content<0,10%). Then the solution was quickly filtered and then transferred into a cold container.

[7] = cited from earlier work; remark: listed apart in the source
[8] = cited from earlier work; remark: listed apart in the source
[9] = Example 36: 1550 mg in water (100 ml), t = 0, pH 3.6, 20° C.
[10] = Example 36: after 1 hour at 60° C.-65° C., pH corrected to 4.5-5.0 with sodium hydroxide
[11] = Example 36: final, pH 4.8 (sodium hydroxide), 10° C.
[12] = Example 37: 1550 mg in water (100 ml), t = 0, pH 3.6, 20° C.
[13] = Example 37: Final, pH 4.7 (AMBERLITE IRA-67 free base), 10° C.
[14] = Example 37: after 45 minutes at 60° C.-65° C., pH corrected to 4.5-5.0 with AMBERLITE IRA-67 free base
[15] = starting Epirubicin hydrochloride (1550 mg) before dissolving
[16] = Example 41: pH 3.2-3.8, 60° C.-65° C. for 1 hour, pH 4.5-5.0 with sodium hydroxide, frozen and lyophilized
[17] = Example 44: pH 3.2-3.8, 60° C.-65° C. for 1 hour, pH 4.5-5.0 with AMBERLITE IRA-67 free base, filtered, frozen, lyophilized

SMILES: COc1cccc2c1C(=O)c1c(O)c3c(c(O)c1C2=O)C[C@@](O)(C(=O)CO)C[C@@H]3O[C@H]1C[C@@H](N)[C@@H](O)C(C)O1 (stereo partly shown) [Epirubicin]
solubility ([1]; in acetone, chloroform, and methylene chloride): practically insoluble | solubility ([1]; in water, methanol and ethyl alcohol, at a temperature of 50° C.): soluble

SMILES: COc1cccc2c1C(=O)c1c(O)c3c(c(O)c1C2=O)C[C@@](O)(C(=O)CO)C[C@@H]3O[C@H]1C[C@@H](N)[C@H](O)C(C)O1 (stereo partly shown) [Doxorubicin]
solubility ([1]; in acetone, benzene, chloroform and ethyl ether): practically insoluble | solubility ([1]; in water, methanol): soluble

% aglycone ([2]; 0.05 M formic acid, after addition of NH4OAc (4% molar), pH 2.71, 0.5 hr - 20° C.): 0.13% | % aglycone ([2]; 0.05 M formic acid, after addition of NH4OAc (4% molar), pH 2.71, 1.0 hr - 20° C.): 0.11% | % aglycone ([2]; 0.05 M formic acid, after addition of NH4OAc (4% molar), pH 2.71, 1.5 hr - 20° C.): 0.12% | % aglycone ([2]; 0.05 M formic acid, after addition of NH4OAc (4% molar), pH 2.71, 2.0 hr - 20° C.): 0.10% | % aglycone ([2]; 0.05 M formic acid, after addition of NH4OAc (4% molar), pH 2.71, 4.0 hr - 20° C.): 0.14% | % aglycone in doxorubicin HCl ([2]; 0.1 N acetic acid, after addition of NH4OAc (4% molar), pH 3.02, 0.5 hr - 20° C.): 0.20% | % aglycone in doxorubicin HCl ([2]; 0.1 N acetic acid, after addition of NH4OAc (4% molar), pH 3.02, 1.0 hr - 20° C.): 0.13% | % aglycone in doxorubicin HCl ([2]; 0.1 N acetic acid, after addition of NH4OAc (4% molar), pH 3.02, 1.5 hr - 20° C.): 0.12% | % aglycone in doxorubicin HCl ([2]; 0.1 N acetic acid, after addition of NH4OAc (4% molar), pH 3.02, 2.0 hr - 20° C.): 0.35% | % aglycone in doxorubicin HCl ([2]; 0.1 N acetic acid, after addition of NH4OAc (4% molar), pH 3.02, 3.0 hr - 20° C.): 0.12% | % aglycone in doxorubicin HCl ([2]; 0.1 N acetic acid, after addition of NH4OAc (4% molar), pH 3.02, 6.0 hr - 20° C.): 0.16% | % aglycone ([2]; 500 mg in 0.001 N hydrochloric acid (20 ml), pH 3.25, 20° C., 1.0 hr): 0.24% | % aglycone ([2]; 500 mg in 0.001 N hydrochloric acid (20 ml), pH 3.25, 20° C., 3.0 hr): 0.21% | % aglycone ([2]; 500 mg in 0.001 N hydrochloric acid (20 ml), pH 3.25, 20° C., 5.0 hr): 0.26% | % aglycone ([2]; 500 mg in 0.001 N hydrochloric acid (20 ml), pH 3.25, 20° C., 22.0 hr): 0.25% | % aglycone ([2]; 500 mg in 0.05 M formic acid (20 ml), 1.0 hr - 20° C., pH 2.52, before addition of NH4OAc): 0.20% | % aglycone in doxorubicin HCl ([2]; 500 mg in 0.1 N acetic acid (20 ml), 1.0 hr - 20° C., pH 2.62, before addition of NH4OAc): 0.17% | % aglycone ([3]; lyophilized product obtained (IRA-67 acetate treatment)): 0.09% | % aglycone ([3]; solution after treatment with 1.5% mol of IRA-67 acetate, slurried 2 hr, filtered, loaded into lyophilizer): 0.07% | % aglycone ([3]; starting solid doxorubicin hydrochloride, 2.5% w/v in water, after correcting pH (4.75), before resin treatment): 0.07% | % aglycone ([4]; 500 mg in water (10 ml), pH lowered from 5.4 to 3.5 with hydrochloric acid, 1 hr, 60° C.): 0.11% | % aglycone ([4]; 500 mg in water (10 ml), pH lowered from 5.4 to 3.5 with hydrochloric acid, 2 hr, 60° C.): 0.31% | % aglycone ([4]; pH 3.5 solution after two hours at 60° C., cooled, 1 hr, 20° C.): 0.21% | % aglycone ([4]; pH 3.5 solution after two hours at 60° C., cooled, 3 hr, 20° C.): 0.22% | aglycone contained in lyophilized product ([5]; Example 40: pH 3.5 with acetic acid, 60° C. for 2 hours, ammonium acetate 1.5% molar, frozen and lyophilized): 0.12% | aglycone contained in lyophilized product ([5]; Example 43: pH 4.6-4.8, AMBERLITE IRA-67 acetate 1.5% molar, filtered, frozen and lyophilized): 0.10%
SMILES: COc1cccc2c1C(=O)c1c(O)c3c(c(O)c1C2=O)C[C@@](O)(C(=O)CO)C[C@@H]3O[C@H]1C[C@@H](N)[C@H](O)C(C)O1.Cl (stereo partly shown) [Doxorubicin HCl, Doxorubicin hydrochloride]

% aglycone [6, 9]: 0.04% | % dimer content [6, 9]: 0.80% | % aglycone ([6]; Example 36: 15 min, 60° C.): 0.06% | % dimer content ([6]; Example 36: 15 min, 60° C.): 0.38% | % aglycone ([6]; Example 36: 30 min, 60° C.): 0.07% | % dimer content ([6]; Example 36: 30 min, 60° C.): 0.18% | % aglycone ([6]; Example 36: 45 min, 60° C.): 0.09% | % dimer content ([6]; Example 36: 45 min, 60° C.): 0.11% | % aglycone ([6]; Example 36: 60 min, 60° C.): 0.11% | % dimer content ([6]; Example 36: 60 min, 60° C.): 0.08% | % aglycone ([6]; Example 36: T = 0, 60° C.): 0.04% | % dimer content ([6]; Example 36: T = 0, 60° C.): 0.74% | dimer content [6, 10]: < 0,10% | epirubicin aglycone [6, 10]: about 0,10% | % aglycone [6, 11]: 0.11% | % dimer content [6, 11]: 0.08% | % aglycone [6, 12]: 0.04% | % dimer content [6, 12]: 0.80% | % aglycone ([6]; Example 37: 10 min, 60° C.): 0.05% | % dimer content ([6]; Example 37: 10 min, 60° C.): 0.38% | % aglycone ([6]; Example 37: 20 min, 60° C.): 0.07% | % dimer content ([6]; Example 37: 20 min, 60° C.): 0.18% | % aglycone ([6]; Example 37: 30 min, 60° C.): 0.09% | % dimer content ([6]; Example 37: 30 min, 60° C.): 0.11% | % aglycone ([6]; Example 37: 40 min, 60° C.): 0.10% | % dimer content ([6]; Example 37: 40 min, 60° C.): 0.08% | % aglycone [6, 13]: 0.10% | % dimer content [6, 13]: 0.08% | % aglycone ([6]; Example 37: T = 0, 60° C.): 0.05% | % dimer content ([6]; Example 37: T = 0, 60° C.): 0.76% | dimer content [6, 14]: < 0,10% | epirubicin aglycone [6, 14]: about 0,09% | dimer contained [6, 15]: 0.8% | epirubicin aglycone contained [6, 15]: 0.04% | aglycone contained in lyophilized product [5, 16]: 0.12% | dimer contained in lyophilized product [5, 16]: 0.1% | aglycone contained in lyophilized product [5, 17]: 0.10% | dimer contained in lyophilized product [5, 17]: 0.10%
SMILES: COc1cccc2c1C(=O)c1c(O)c3c(c(O)c1C2=O)C[C@@](O)(C(=O)CO)C[C@@H]3O[C@H]1CC(N)[C@@H](O)C(C)O1.Cl (stereo in doubt) [Epirubicin HCl, epirubicin hydrochloride]
pH in a 0.5% w/v solution in water [7]: 4-5.5 | pKa in water [8]: 7.7
